Patent US6117833A, “Bleaching compositions and method for bleaching substrates directly with air” (priority 1998, dated 2000)

Test: Bleaching of tea-stained (BC-1) swatches by aldehyde + NHPI + air in Tergotometer (change in reflectance)
Conditions: aldehyde 15 mM, NHPI 1 mM, carbonate buffer, 30 min, 25° C., 460 nm, average of 2 values (6 for * = Exceptional Bleaching Aldehyde)
Procedure: A general outline of the essential steps in our experimental protocol are shown below.
a) Measure the initial reflectance of the swatches (Ri).
b) Saturate the wash solution with air.
c) Wash, rinse and dry the swatches.
d) Measure the final reflectance of the swatches (Rf).
All work was conducted in a Tergotometer with 2L stainless steel pots. The swatches were dried flat on a rack in a Kenmore dryer. […] The conditions utilized were as follows:
Initiator N-Hydroxyphthalimide (NHPI, 1 mM)
Aldehyde Aldehyde (15 mM)
Each Tergotometer Pot was filled with 1 liter of milli-Q-water containing carbonate buffer solution which was saturated for 15 minutes with air under agitation at 25° C. Tea stained (BC-1) swatches were washed for 30 minutes in the presence of aldehyde, air and NHPI at pH=8 (25° C.). The corresponding controls (buffer alone, NHPI alone and aldehyde alone) were performed simultaneously. All swatches were rinsed twice for 3 minutes with agitation at 25° C. and dried flat on a rack in a Kenmore with soft heat for 30 minutes.
To quantify the degree of stain removal, the reflectance of 4 stained swatches (4 per pot) were measured before and after washing using a Gardner reflectometer (Model #2000) set at 460*nm (*UV filter). The change in reflectance (ΔR) was determined by taking the difference of the swatch before and after each washing. The standard deviation (σ) and ΔΔRave was assigned to each experimental group.
Rl =Initial reflectance of stained swatch before washing.
Rf =Final reflectance of stained swatch after washing.
ΔRaldehyde system+control -ΔRcontrol =ΔΔR
ΔΔRave =Represents the average bleaching by the aldehyde system.
In general, the larger the ΔΔRave value, the greater the bleaching and cleaning.
(σ)=[Σ^n aj -aa)^2 /N-I]^0.5
Σ^n =sum (aj -aa)^2 per measurement
N=number of measurements=8

| SMILES | ΔΔRave on BC-1 at pH = 8 |
| --- | --- |
| Cc1ccc(C=O)cc1 [4-Methylbenzaldehyde] | 8.3 |
| O=Cc1ccco1 [2-Furfural] | 0.2 |
| O=Cc1ccccc1 [Benzaldehyde] | 1.5 |
| O=Cc1ccccc1Br [2-Bromobenzaldehyde] | 2.1 |
| O=Cc1cc(Cl)cc(Cl)c1 [3,5-Dichlorobenzaldehyde] | -0.2 |
| O=C[C@H](O)[C@@H](O)[C@H](O)[C@H](O)CO [D-Glucose] | 0.6 |
| O=Cc1c(F)c(F)cc(F)c1F [2,3,5,6-Tetrafluorobenzaldehyde] | 0.3 |
| O=Cc1cccc(C(F)(F)F)c1 [3-Trifluoromethylbenzaldehyde] | 3.1 |
| Cc1cccc(C=O)c1 [3-Methylbenzaldehyde] | 10.0 |
| O=Cc1ncc[nH]1 [2-Imidazolecarboxy Aldehyde] | -0.5 |
| CC(C)C=O [Isobutyraldehyde] | 0.4 |
| O=Cc1cccc(Oc2ccccc2)c1 [3-Phenoxybenzaldehyde] | 1.1 |
| O=Cc1ccccc1Cl [2-Chlorobenzaldehyde] | 8.7 |
| Cc1cc(C)c(C=O)c(C)c1 [2,4,6-Trimethylbenzaldehyde] | 6.3 |
| O=Cc1cc(F)cc(F)c1 [3,5-Difluorobenzaldehyde] | 0.9 |
| CCCCCC(C=O)=Cc1ccccc1 [α-Amylcinnamaldehyde] | 1.0 |
| CCCCCCC=O [n-Heptyladehyde] | 0.8 |
| Cc1ccc(Oc2cccc(C=O)c2)cc1 [3-(4-Methylphenoxy)benzaldehyde] | 0.0 |
| O=Cc1cc([N+](=O)[O-])cc([N+](=O)[O-])c1 [3,5-Dinitrobenzaldehyde] | 0.1 |
| COc1ccccc1C=O [2-Methoxybenzaldehyde] | 0.8 |
| O=CCCCC=O | 0.7 |
| CC(C)(C)c1ccc(C=O)cc1 [4-t-Butylbenzaldehyde] | 1.3 |
| O=Cc1c(Cl)cccc1Cl [2,6-Dichlorobenzaldehyde] | 0.0 |

| SMILES | ΔΔRave on BC-1 at pH = 8 |
| --- | --- |
| O=Cc1ccc(C(=O)O)cc1 [4-Carboxybenzaldehyde] | -0.1 |
| O=Cc1cccc(Cl)c1 [3-Chlorobenzaldehyde] | 1.9 |
| CC(C=O)c1ccccc1 (stereo not shown) [2-Phenylpropionaldehyde] | 0.1 |
| CCCOc1ccc(C=O)cc1 [4-Propyoxybenzaldehyde] | 0.2 |
| O=Cc1ccc(O)cc1 [4-Hydroxybenzaldehyde] | 0.7 |
| O=Cc1ccccc1F [2-Fluorobenzaldehyde] | 1.0 |
| CCCCCCCCCCC=O [n-Undecylaldehyde] | 0.0 |
| CC(C)c1ccc(C=O)cc1 [4-Isopropylbenzaldehyde] | 1.5 |
| CCOc1ccc(C=O)cc1 [4-Ethoxybenzaldehyde] | 0.4 |
| O=Cc1cccc(Br)c1 [3-Bromobenzaldehyde] | 3.2 |
| O=Cc1cccc(O)c1 [3-Hydroxybenzaldehyde] | 0.8 |
| Cc1cc(C)cc(C=O)c1 [3,5-Dimethylbenzaldehyde] | 9.3 |
| O=CC(O)CO (racemic) [DL-Glyceraldehyde] | -0.8 |
| O=Cc1ccc([N+](=O)[O-])cc1 [4-Nitrobenzaldehyde] | 0.3 |
| O=CN1CCOCC1 [4-Formylmorpholine] | 0.1 |
| CCCCCCOc1ccc(C=O)cc1 [4-Hexyloxybenzaldehyde] | 0.5 |
| O=Cc1ccc(F)cc1 [4-Fluorobenzaldehyde] | 1.6 |
| Cc1ccc(C)c(C=O)c1 [2,5-Dimethylbenzaldehyde] | 8.8 |
| Cc1ccc(C=O)c(C)c1 [2,4-Dimethylbenzaldehyde] | 8.9 |
| COc1ccc(C=O)cc1 [4-Methoxybenzaldehyde] | 1.2 |
| CCCC=O [n-Butyraldehyde] | 0.6 |
| O=C/C=C/c1ccccc1 [trans-Cinnamaldehyde] | 1.2 |
| O=CC=O [Glyoxal] | 0.6 |

| SMILES | ΔΔRave on BC-1 at pH = 8 |
| --- | --- |
| O=Cc1cccc(F)c1 [3-Fluorobenzaldehyde] | 0.6 |
| O=Cc1ccccc1[N+](=O)[O-] [2-Nitrobenzaldehyde] | 0.1 |
| COc1ccc(C=O)cc1C [4-Methoxy-3-Methylbenzaldehyde] | 0.4 |
| O=Cc1ccc(C=O)cc1 [Phenyl-1,4-dicarboxyaldehyde] | -1.1 |
| O=Cc1ccc(Br)cc1 [4-Bromobenzaldehyde] | 0.1 |
| CCCCCCCCCC=O [n-Decylaldehyde] | 0.6 |
| O=Cc1cccc([N+](=O)[O-])c1 [3-Nitrobenzaldehyde] | 1.2 |
| O=Cc1ccc(Cl)cc1 [4-Chlorobenzaldehyde] | -0.1 |
| O=Cc1ccccc1O [2-Hydroxybenzaldehyde] | 0.4 |
| O=Cc1cccc(C=O)c1 [Phenyl-1,3-dicarboxyaldehyde] | 0.2 |
| O=Cc1ccccc1C=O [Phenyl-1,2-dicarboxyaldehyde] | 1.1 |
| COc1cc(C=O)cc(OC)c1 [3,5-Dimethoxybenzaldehyde] | 1.4 |
| O=Cc1ccc(S(=O)(=O)O)o1 [5-Formylfuran-2 sulfonic Acid] | -3.3 |
| COc1cccc(C=O)c1 [3-Methoxybenzaldehyde] | 0.6 |
| C/C=C/C=O [Crotonaldehyde] | 0.7 |
| CN(C)c1ccc(C=O)cc1 [4-Dimethylaminobenzaldehyde] | 1.0 |
| Cc1ccc(C=O)cc1C [3,4-Dimethylbenzaldehyde] | 10.3 |
| CCCCCCCCCCCC=O [n-Dodecylaldehyde] | 0.2 |
| O=Cc1ccccc1S(=O)(=O)O [1-Formylbenzene-2-sulfonic acid] | 0.5 |
| Cc1ccccc1C=O [2-Methylbenzaldehyde] | 5.8 |
| CC(C)(C)c1cc(C=O)cc(C(C)(C)C)c1O [4-Hydroxy-3,5-t-Butylbenzaldehyde] | 0.0 |
